Results on 20 compounds are retold here after US20200270225A1, “Chiral Diacylhydrazine Ligands for Modulating the Expression of Exogenous Genes via an Ecdysone Receptor Complex” (Intrexon Corporation, priority 2007, published 2020).

Series [1] concerns the target T1, [V390I/Y410E/E274V]-CfEcR (Choristoneura fumiferana, UniProt O77240).
T1 construct: assay construct b835
It is filed as cell-based. The following applies: 3T3 Cells; for RMFI (relative maximum fold induction): relative to GS-E ligand. How it is done: (§1) Cellular gene switch assays were performed by transiently transfecting the following constructs in mouse embryonic fibroblast cells (NIH3T3). The wild-type D, E and F domains from Choristoneura fumiferana EcR or its V390I/Y410E/E274V mutant were fused to GAL4-DBD and placed under the control of the CMV promoter in the pBIND vector (Promega Corporation, Madison, Wis., USA). The DEF domains of EcRs shown were amplified using primers designed based on 20-25 nt sequences at the 5′ and 3′ ends. Restriction enzyme sites EcoR I/BamH I and Xba I were added to 5′ and 3′ primers respectively. The PCR products were digested with appropriate restriction enzymes and cloned into pBIND vector. The EcR LBDs cloned into pBIND vector were verified by sequencing. A chimeric RXR from Homo sapiens RXRP and Locusta migratoria RXR, fused to VP16-AD and placed under the control of an SV40e promoter, was constructed as previously described (Kumar P & Katakam A in Gene Transfer, Friedmann T and Rossi J, eds, pp. 643-651 (2007), Cold Spring Harbor Laboratory Press, Cold Spring Harbor, N.Y.). The inducible luciferase reporter plasmid pFRLuc (Stratagene Cloning Systems, La Jolla, Calif., USA), contains five copies of the GAL4 response element and a synthetic minimal promoter.
(§2) NIH3T3 cells were maintained at 37′C and 5% CO2 in Dulbecco's modified Eagle's medium (DMEM) supplemented with 10% bovine calf serum, both obtained from Mediatech Inc., Manassas, Va. Cells were planted in a 96-well plate at a density of 2,500 cells/well in 50 μL of growth medium. The following day cells were first treated with 35 μL of serum-free DMEM containing dimethyl sulfoxide (DMSO; control) or a DMSO solution containing ligand. Cells were then transfected with 15 μl of serum-free DMEM containing 0.04 μg of EcR construct, 0.04 ug of RXR construct, and 0.16 μg of luciferase reporter construct per well, using SuperFect™ transfection reagent (Qiagen Inc., Valencia, Calif., USA) according to the manufacturer's instructions. Ligands were tested at 8 doses from 0.01-33 μM and the final DMSO concentration was 0.33% in both control and treatment wells. After a 48 hour post-treatment and transfection incubation, the cells were assayed for luciferase activity using the Bright-Glo™ Luciferase Assay System (Promega Corporation, Madison, Wis., USA) following the manufacturer's instructions. EC50 values were measured minimally in duplicate.
(§3) Luciferase reporter gene expression was measured 48 h after cell treatment using Bright-Glo™ Luciferase Assay System from Promega (E2650). Luminescence was detected at room temperature using a Dynex MLX microtiter plate luminometer.
(§4) Each assay was conducted in two separate wells, and the two values were averaged. Fold inductions were calculated by dividing relative light units (“RLU”) in ligand treated cells with RLU in DMSO treated cells. EC50s were calculated from dose response data using a three-parameter logistic model. Relative Max FI was determined as the maximum fold induction of the tested ligand (an embodiment of the invention) observed at any concentration relative to the maximum fold induction of GS™-E ligand (3,5-dimethyl-benzoic acid N-tert-butyl-N′-(2-ethyl-3-methoxy-benzoyl)-hydrazide) observed at any concentration.

Series [2] has as its target wild-type Choristoneura fumiferana EcR (D, E and F domains) (Choristoneura fumiferana, UniProt O77240). Type of series: cell-based. The following applies: WT-CtEcR, 3T3 Cells; for RMFI (relative maximum fold induction): relative to GS-E ligand. How it is done: as §1, §2, §3, §4

Structures are written as SMILES. Like-named read-outs stand apart in the source and are kept apart here.

As a reminder, the EC50 is the concentration giving half of the maximal effect.

`CCC[C@H](N(NC(=O)c1ccccc1Cl)C(=O)c1cc(C)cc(C)c1)C(C)(C)C` [Example 35, (S)-3,5-Dimethyl-benzoic acid N-(1-tert-butyl-butyl)-N′-(2-chloro-benzoyl)-hydrazide]: in series [1] (S), the EC50 was ~20 nM and the “RMFI (relative maximum fold induction)” value is reported as 0.77. For the same compound, in series [2] (S), the EC50 is ~1000 nM and the “RMFI (relative maximum fold induction)” value is 0.44.

As to `CCC[C@H](N(NC(=O)c1ccc(C)cc1)C(=O)c1cc(C)cc(C)c1)C(C)(C)C` [Example 38, (S)-3,5-Dimethyl-benzoic acid N-(1-tert-butyl-butyl)-N′-(4-methyl-benzoyl)-hydrazide], in series [1] (S), the EC50 was 341 nM and the “RMFI (relative maximum fold induction)” value worked out at 0.44. Also, in series [2] (S), the EC50 is 2170 nM and the “RMFI (relative maximum fold induction)” value was 0.25.

Take `CCCC(N(NC(=O)c1ccccc1Br)C(=O)c1cc(C)cc(C)c1)C(C)(C)C` (racemic) [rac-7]: the EC50 in series [1] (rac, read-out: EC50) is ~3 nM; in series [2] (rac, read-out: EC50), 86 nM. The figures for the “RMFI (relative maximum fold induction)” value in series [1] (rac) and in series [2] (rac) were 1.28 and 0.63, respectively.

As to `CCCC(N(NC(=O)c1cccc(C)c1)C(=O)c1cc(C)cc(C)c1)C(C)(C)C` (racemic) [rac-8], the EC50 in series [1] (rac, read-out: EC50) amounted to 16.2 nM; in series [2] (rac, read-out: EC50) it was 193 nM. The entries for the “RMFI (relative maximum fold induction)” value in series [1] (rac) and in series [2] (rac) were 0.86 and 0.88, respectively.

With `CCC[C@@H](N(NC(=O)c1cc(C)oc1C)C(=O)c1cc(C)cc(C)c1)C(C)(C)C` [Example 26, (R)-3,5-Dimethyl-benzoic acid N-(1-tert-butyl-butyl)-N′-(2,5-dimethyl-furan-3-carbonyl)-hydrazide], the results for the EC50 in series [1] (R) and in series [2] (R) were 99.4 nM and ~1000 nM, respectively. In addition, the “RMFI (relative maximum fold induction)” value was found to be 0.95 in series [1] (R) and 1.16 in series [2] (R).

Consider `CCCC(N(NC(=O)c1cccc(Cl)c1)C(=O)c1cc(C)cc(C)c1)C(C)(C)C` (racemic) [rac-10], for which the EC50 is 23.9 nM in series [1] (rac, read-out: EC50) and ~100 nM in series [2] (rac, read-out: EC50). The figures for the “RMFI (relative maximum fold induction)” value in series [1] (rac) and in series [2] (rac) were 0.86 and 0.50, respectively.

With `CCCC(N(NC(=O)c1c(Cl)cccc1Cl)C(=O)c1cc(C)cc(C)c1)C(C)(C)C` (racemic) [rac-16, rac-3,5-dimethyl-benzoic acid N-(1-tert-butyl-butyl)-N′-(2,6-dichloro-benzoyl)-hydrazide], in series [1] (rac), the EC50 is ~30 nM and the “RMFI (relative maximum fold induction)” value is on record as 0.73. Also, in series [2] (rac), the EC50 is ~300 nM and the “RMFI (relative maximum fold induction)” value is 0.43.

`CCC[C@@H](C1CCCCC1)N(NC(=O)c1ccccc1)C(=O)c1cc(C)cc(C)c1` [Example 57, (S)-3,5-Dimethyl-benzoic acid N′-benzoyl-N-(1-cyclohexyl-butyl)-hydrazide]: in series [1] (S), a half-maximal response (EC50) required 769 nM and the “RMFI (relative maximum fold induction)” value is 0.50. Further, in series [2] (S), the EC50 was 2750 nM and the “RMFI (relative maximum fold induction)” value was 0.32.

Consider `CCC[C@H](N(NC(=O)c1cccc(OC)c1C)C(=O)c1cc(C)cc(C)c1)C(C)(C)C` [Example 47, (S)-3,5-Dimethyl-benzoic acid N-(1-tert-butyl-butyl)-N′-(3-methoxy-2-methyl-benzoyl)-hydrazide], for which, in series [1] (S), it took 56.3 nM to reach a half-maximal effect (EC50) and the “RMFI (relative maximum fold induction)” value was determined as 0.57. Further, in series [2] (S), the concentration for a half-maximal effect (EC50) was ~200 nM and the “RMFI (relative maximum fold induction)” value is on record as 0.49.

Consider `CCC[C@H](N(NC(=O)c1ccccc1)C(=O)c1cc(C)cc(C)c1)C(C)(C)C` [Example 32], for which the figures for the EC50 in series [1] (S) and in series [2] (S) were 267 nM and ~3300 nM, respectively. The “RMFI (relative maximum fold induction)” value in series [1] (S) is recorded as 0.38; in series [2] (S) it was 0.19.

In the case of `Cc1cc(C)cc(C(=O)N(NC(=O)OCc2ccccc2)[C@@H](CCCO)C(C)(C)C)c1` [Example 63, (S)—N′-(1-tert-Butyl-4-hydroxy-butyl)-N′-(3,5-dimethyl-benzoyl)-hydrazine Carboxylic Acid Benzyl Ester], the EC50 in series [1] (S) and in series [2] (S) was > 10000 nM in each case.

As to `CCC[C@H](N(NC(=O)c1c(F)cccc1F)C(=O)c1cc(C)cc(C)c1)C(C)(C)C` [Example 40, (S)-3,5-Dimethyl-benzoic acid N-(1-tert-butyl-butyl)-N′-(2,6-difluoro-benzoyl)-hydrazide], the EC50 in series [1] (S) was ~20 nM; in series [2] (S), ~1000 nM. Besides, the “RMFI (relative maximum fold induction)” value is reported as 0.69 in series [1] (S) and 0.39 in series [2] (S).

Consider `CCC[C@@H](C1CCCCC1)N(NC(=O)c1ccc(CC)cc1)C(=O)c1cc(C)cc(C)c1` [Example 59, (S)-3,5-Dimethyl-benzoic acid N-(1-cyclohexyl-butyl)-N′-(4-ethyl-benzoyl)-hydrazide], for which, in series [1] (S), the concentration giving a half-maximal response (EC50) was ~30 nM and the “RMFI (relative maximum fold induction)” value is on record as 0.35. Also, in series [2] (S), the EC50 is ~1000 nM and the “RMFI (relative maximum fold induction)” value is recorded as 0.28.

Regarding `C=CCC(C1CCCCC1)N(NC(=O)c1cccc(OC)c1C)C(=O)c1cc(OC)c(C)c(OC)c1` (racemic) [rac-61], the EC50 in series [1] (rac, read-out: EC50) was 521 nM; in series [2] (rac, read-out: EC50), ~3300 nM. For the same compound, the “RMFI (relative maximum fold induction)” value in series [1] (rac) came out at 0.39; in series [2] (rac) it was 0.31.

Consider `CCCC(N(NC(=O)c1ccccc1F)C(=O)c1cc(C)cc(C)c1)C(C)(C)C` (racemic) [rac-5], for which the concentration giving a half-maximal response (EC50) in series [1] (rac, read-out: EC50) is 1.1 nM; in series [2] (rac, read-out: EC50), 81 nM. Also, the results for the “RMFI (relative maximum fold induction)” value in series [1] (rac) and in series [2] (rac) were 0.67 and 0.59, respectively.

For the compound `CCC[C@H](N(NC(=O)c1cccc(C)c1)C(=O)c1cc(C)cc(C)c1)C(C)(C)C` [Example 37, (S)-3,5-Dimethyl-benzoic acid N-(1-tert-butyl-butyl)-N′-(3-methyl-benzoyl)-hydrazide], in series [1] (S), the 50% effective concentration (EC50) worked out at 292 nM and the “RMFI (relative maximum fold induction)” value worked out at 0.47. In addition, in series [2] (S), the EC50 was ~3300 nM and the “RMFI (relative maximum fold induction)” value was 0.22.

Consider `CCC[C@H](N(NC(=O)c1c(Cl)cccc1Cl)C(=O)c1cc(C)cc(C)c1)C(C)(C)C` [Example 41, (S)-3,5-Dimethyl-benzoic acid N-(1-tert-butyl-butyl)-N′-(2,6-dichloro-benzoyl)-hydrazide], for which, in series [1] (S), the concentration giving a half-maximal response (EC50) was ~700 nM and the “RMFI (relative maximum fold induction)” value was found to be 0.62. In addition, in series [2] (S), the half-maximal effective concentration (EC50) was ~3300 nM and the “RMFI (relative maximum fold induction)” value was 0.10.

For `CCC[C@@H](C1CCCCC1)N(NC(=O)c1cccc(OC)c1)C(=O)c1cc(C)cc(C)c1` [Example 58, (S)-3,5-Dimethyl-benzoic acid N-(1-cyclohexyl-butyl)-N′-(3-methoxy-benzoyl)-hydrazide], in series [1] (S), the EC50 is 121 nM and the “RMFI (relative maximum fold induction)” value came to 0.42. Besides, in series [2] (S), the EC50 is ~3300 nM and the “RMFI (relative maximum fold induction)” value was 0.25.

`CCC[C@H](N(NC(=O)c1ccc2ccccc2c1)C(=O)c1cc(C)cc(C)c1)C(C)(C)C` [Example S-24]: the EC50 in series [2] (S, read-out: EC50) was determined as 5380 nM. The “RMFI (relative maximum fold induction)” value in series [2] (S) is 0.13.

Regarding `CCC[C@H](N(NC(=O)c1ccc(Cl)nc1)C(=O)c1cc(C)cc(C)c1)C(C)(C)C` [Example 46, (S)-3,5-Dimethyl-benzoic acid N-(1-tert-butyl-butyl)-N′-(6-chloro-pyridine-3-carbonyl)-hydrazide], in series [1] (S), the EC50 was determined as 3990 nM and the “RMFI (relative maximum fold induction)” value is 0.42.
